According to article PMC10384675, “Novel Thiazolidine-2,4-dione-trimethoxybenzene-thiazole Hybrids as Human Topoisomerases Inhibitors” (Pharmaceuticals, 2023):

Columns and labels:
A2058 melanoma cells = assay: MTT cell viability assay, A2058; assay type: cell-based; conditions: Homo sapiens, 72 h
Experimental: (§1) All of the synthesized compounds (7a–f) were studied to test their anticancer activity toward the estrogen receptor-positive (ER+) MCF-7 and the triple-negative MDA-MB-231 breast cancer cells (ER-, PR- and HER-2/Neu not overexpressed) and A2058 melanoma cells. Cells were incubated for 72 h with different concentrations of the compounds, and then the viability was checked by the MTT assay. […] Moreover, we checked the cytotoxicity of all of the synthesized compounds against the human MCF-10A non-malignant breast epithelial cells and mouse BALB/3T3 embryonic fibroblasts, in order to evaluate their selectivity on cancer cells.
(§2) The used cell lines (breast cancer cell lines MCF-7 and MDA-MB-231, melanoma cell line A2058 and human mammary epithelial cell line MCF-10A) were obtained from American Type Culture Collection (ATCC, Manassas, VA, USA) and cultured as already reported. The mouse BALB/3T3 embryonic fibroblasts were also purchased from American Type Culture Collection (ATCC, Manassas, VA, USA) and cultured in DMEM high glucose supplemented with 10% bovine calf serum (BCS) and 100 U mL^−1 penicillin/streptomycin.
(§3) MTT assay (Sigma Aldrich (St. Louis, MO, USA)) was performed for evaluating the in vitro anticancer activities of the compounds, as previously indicated. Different concentrations (0.1, 1, 10, 25, 50, and 100 μM) of the compounds were employed, with a 72 h endpoint. IC50 values were obtained from the percent (%) of control using GraphPad Prism 9 (GraphPad Software, La Jolla, CA, USA).

[1] = system: mouse BALB/3T3 embryonic fibroblasts; assay: MTT cytotoxicity assay, BALB/3T3; assay type: cell-based; conditions: 72 h, normal cells
Experimental: as §1, §2, §3

[2] = system: human MCF-10A non-malignant breast epithelial cells; assay: MTT cytotoxicity assay, MCF-10A; assay type: cell-based; conditions: 72 h, normal cells
Experimental: as §1, §2, §3

hTopo II = molecular target: T1, hTopo II (Homo sapiens, UniProt P11388); assay: hTopo II decatenation assay; assay type: biochemical; parameters: key to Topoisomerase Inhibition hTopo II: (+) inhibition; (−) no inhibition; (+/−) partial inhibition; conditions: for hTopo II activity inhibition (in words): kDNA
T1 construct: purchased TopoGEN, Port Orange, FL
Experimental: The linear kDNA (Figure 4a,b, lanes A), decatenated kDNA (Figure 4a,b, lanes B) and the catenated circles of kDNA (Figure 4a,b, lanes C) were used as markers. A parallel experiment was performed using ellipticine as reference molecule.
(§4) hTopo I relaxation assays were performed by incubating the substrate (supercoiled pHOT1) with the recombinant hTopo I (TopoGEN, Port Orange, FL, USA) and compounds, as indicated in the supplier protocol (TopoGEN, Port Orange, FL, USA), with some revisions. hTopo II decatenation assays were conducted by incubating the kinetoplast DNA substrate (kDNA) with the hTopo II (TopoGEN, Port Orange, FL) and studied compounds, as indicated in the supplier procedures (TopoGEN, Port Orange, FL, USA), with some changes as in [80].
Figure 4 hTopo II decatenation assay. […] The same experiment was performed using ellipticine (c). Lane 1, decatenated kDNA marker; lane 2, linear kDNA marker; lane 3, CTRL (DMSO), lanes 4–5, ellipticine 10 and 50 µM, respectively.

[3] = system: MDA-MB-231 breast cancer cells; assay: MTT cell viability assay, MDA-MB-231; assay type: cell-based; conditions: Homo sapiens, 72 h
Experimental: as §1, §2, §3

[4] = system: MCF-7 breast cancer cells; assay: MTT cell viability assay, MCF-7; assay type: cell-based, human; conditions: Homo sapiens, MCF7; MTT, 72 h
Experimental: as §1, §2, §3

hTopo I = molecular target: T2, hTopo I (Homo sapiens, UniProt P11387); assay: hTopo I relaxation assay; assay type: biochemical; parameters: key to Topoisomerase Inhibition hTopo I: (+) inhibition; (−) no inhibition; (+/−) partial inhibition; conditions: for hTopo I activity inhibition (in words): supercoiled pHOT1
T2 construct: purchased TopoGEN, Port Orange, FL, USA
T2 sequence (P11387 1-765): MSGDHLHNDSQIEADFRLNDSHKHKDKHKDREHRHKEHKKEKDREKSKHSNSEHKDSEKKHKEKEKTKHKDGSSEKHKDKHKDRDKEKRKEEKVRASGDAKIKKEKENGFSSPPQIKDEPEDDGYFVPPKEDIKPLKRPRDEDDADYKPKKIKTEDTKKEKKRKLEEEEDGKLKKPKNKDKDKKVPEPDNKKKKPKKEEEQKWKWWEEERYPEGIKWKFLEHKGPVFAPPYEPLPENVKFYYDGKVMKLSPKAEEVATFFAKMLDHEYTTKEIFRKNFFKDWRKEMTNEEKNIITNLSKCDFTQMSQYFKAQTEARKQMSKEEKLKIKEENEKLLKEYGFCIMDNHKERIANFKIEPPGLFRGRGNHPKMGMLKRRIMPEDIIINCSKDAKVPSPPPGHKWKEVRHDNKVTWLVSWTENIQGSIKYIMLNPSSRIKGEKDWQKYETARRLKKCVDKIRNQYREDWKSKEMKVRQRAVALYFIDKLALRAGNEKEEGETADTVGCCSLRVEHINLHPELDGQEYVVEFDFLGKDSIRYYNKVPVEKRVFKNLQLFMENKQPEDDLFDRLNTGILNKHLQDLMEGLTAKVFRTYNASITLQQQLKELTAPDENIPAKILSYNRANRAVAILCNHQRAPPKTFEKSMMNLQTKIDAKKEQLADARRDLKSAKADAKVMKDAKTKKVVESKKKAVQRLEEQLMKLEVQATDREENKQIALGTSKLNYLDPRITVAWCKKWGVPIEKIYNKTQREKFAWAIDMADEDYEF
Excerpt: Thiazoles and their derivatives are extensively recognized as chemical nuclei of great interest for producing molecules with multiple biological properties. In particular, several compounds bearing these heterocycles were studied for their capability to interfere with DNA topoisomerases (Topos), ubiquitous enzymes essential in several key cellular processes. In recent years, these enzymes have become popular targets in cancer therapy; indeed, the topoisomerase inhibitors can induce damage to genome integrity. Consequently, the inhibition of topoisomerases leads to cell death by apoptosis and, thus, is fatal. Thus, we carried out two specific tests in vitro for both of the Topos, namely the hTopo I relaxation and the hTopo II decatenation assays. For the hTopo I relaxation assay, we exposed the enzyme to the most interesting compounds, 7b–7e, at the final concentration of 10 µM for 1 h at 37 °C, using as substrate the supercoiled pHOT1 (see Section 4 Materials and Methods for more details). […] Contrarily, in the CTRL lane, where the hTopo I was exposed to only vehicle (DMSO), several bands due to pHOT1 DNA cleavage were present (Figure 3, lane C). […] In Figure 3, panel B, the hTopo I inhibition results using ellipticine, as reference molecule are shown. […] An electrophoretic mobility shift of the pHOT1 DNA was also noticeable, due to the intercalating properties of ellipticine.
as §4
Figure 3 hTopo I relaxation assay. Plasmid pHOT1, used as substrate, was incubated with hTopo I with or without the studied compounds 7b–7e (10 µM concentration), panel (A), and with or without ellipticine (10 and 50 µM concentration), panel (B). Lane A, relaxed DNA marker; lane B, pHOT1 supercoiled DNA, lane C, CTRL (DMSO), lane D–G, compounds 7b–7e 10 µM, respectively. Lane 1, pHOT1 supercoiled DNA; lane 2, CTRL (DMSO), lanes 3–4, ellipticine 10 and 50 µM, respectively.

T1 sequence (P11388 whole entry): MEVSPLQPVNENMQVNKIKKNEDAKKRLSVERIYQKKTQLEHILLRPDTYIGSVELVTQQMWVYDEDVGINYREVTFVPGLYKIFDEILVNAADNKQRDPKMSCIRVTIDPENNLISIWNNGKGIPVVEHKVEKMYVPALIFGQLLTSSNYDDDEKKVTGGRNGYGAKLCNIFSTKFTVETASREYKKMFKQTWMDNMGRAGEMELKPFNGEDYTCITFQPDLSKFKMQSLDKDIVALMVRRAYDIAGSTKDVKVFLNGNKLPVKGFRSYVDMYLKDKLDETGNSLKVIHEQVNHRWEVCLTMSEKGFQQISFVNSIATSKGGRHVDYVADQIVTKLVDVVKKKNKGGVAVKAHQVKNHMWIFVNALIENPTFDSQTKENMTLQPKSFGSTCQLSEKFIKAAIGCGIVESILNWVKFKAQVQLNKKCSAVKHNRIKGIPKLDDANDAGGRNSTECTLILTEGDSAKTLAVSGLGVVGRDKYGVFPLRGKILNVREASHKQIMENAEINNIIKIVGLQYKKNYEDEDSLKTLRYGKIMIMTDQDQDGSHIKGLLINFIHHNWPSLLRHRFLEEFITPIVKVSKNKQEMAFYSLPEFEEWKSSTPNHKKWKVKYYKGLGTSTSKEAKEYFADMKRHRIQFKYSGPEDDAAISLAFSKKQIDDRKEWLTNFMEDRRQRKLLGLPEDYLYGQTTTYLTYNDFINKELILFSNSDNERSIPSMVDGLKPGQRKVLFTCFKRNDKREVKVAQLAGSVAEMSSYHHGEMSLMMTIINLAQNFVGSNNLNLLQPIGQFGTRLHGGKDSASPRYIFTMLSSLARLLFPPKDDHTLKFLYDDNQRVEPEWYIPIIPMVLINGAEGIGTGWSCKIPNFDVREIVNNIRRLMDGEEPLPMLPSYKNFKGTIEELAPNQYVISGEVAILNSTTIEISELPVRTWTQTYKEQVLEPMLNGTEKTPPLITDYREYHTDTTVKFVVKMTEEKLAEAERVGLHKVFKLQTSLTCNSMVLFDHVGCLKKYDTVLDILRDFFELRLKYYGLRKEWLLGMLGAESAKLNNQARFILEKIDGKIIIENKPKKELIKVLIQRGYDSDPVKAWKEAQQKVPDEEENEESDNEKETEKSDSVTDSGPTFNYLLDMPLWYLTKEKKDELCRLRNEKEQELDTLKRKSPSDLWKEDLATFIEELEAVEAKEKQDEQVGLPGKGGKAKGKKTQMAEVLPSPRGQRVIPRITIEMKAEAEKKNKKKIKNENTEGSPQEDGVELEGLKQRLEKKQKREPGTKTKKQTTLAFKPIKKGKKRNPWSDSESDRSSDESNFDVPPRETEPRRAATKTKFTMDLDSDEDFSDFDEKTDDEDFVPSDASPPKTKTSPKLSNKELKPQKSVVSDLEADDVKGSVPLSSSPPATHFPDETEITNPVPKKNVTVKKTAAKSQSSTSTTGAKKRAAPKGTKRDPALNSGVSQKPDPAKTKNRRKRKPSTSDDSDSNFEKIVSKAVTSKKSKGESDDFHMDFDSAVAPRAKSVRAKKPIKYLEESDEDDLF

Compound	IC50 (A2058 melanoma cells) [µM]	IC50 [1] [µM]	IC50 [2] [µM]	Topoisomerase Inhibition hTopo II (hTopo II; 10 µM)	Topoisomerase Inhibition hTopo II (hTopo II; 50 µM)	IC50 [3] [µM]	IC50 [4] [µM]	Topoisomerase Inhibition hTopo I (hTopo I; 10 µM)	hTopo I activity inhibition (in words) (hTopo I; 10 µM, 1 h, 37 °C)	hTopo II activity inhibition (in words) (hTopo II; 50 µM)	Topoisomerase Inhibition hTopo I (hTopo I; 50 µM)	hTopo I activity inhibition (in words) (hTopo I; 50 µM)	melting point [°C]
COc1cc(/C=C2\SC(=O)N(CC(=O)Nc3nc(-c4ccc(Cl)cc4)cs3)C2=O)cc(OC)c1OC [compound 7d, (Z)-2-(5-(3,4,5-Trimethoxybenzylidene)thiazolidin-2,4-dion-3-yl)-N-(4-(4-chlorophenyl)thiazol-2-yl)acetamide]	6.4 ± 0.9	36.1 ± 1	> 100	−	+	33.4 ± 1	34.1 ± 0.7	−	not able to inhibit the relaxation activity				
Cc1c2ccncc2c(C)c2c1[nH]c1ccccc12 [ellipticine, reference compound]	1.33 ± 0.9	0.97 ± 0.1	1.09 ± 0.1	+/−	+	1.73 ± 0.4	1.15 ± 0.5	+	able to block the hTopo I activity	totally block	+	able to block the hTopo I activity	
COc1cc(/C=C2\SC(=O)N(CC(=O)Nc3nc4ccccc4s3)C2=O)cc(OC)c1OC [compound 7f, (Z)-2-(5-(3,4,5-Trimethoxybenzylidene)thiazolidin-2,4-dion-3-yl)-N-(benzo[d]thiazol-2-yl)acetamide]	24.6 ± 1.1	> 100	> 100	−	+	50.5 ± 0.8	17.4 ± 1.1	+					
COc1cc(/C=C2\SC(=O)N(CC(=O)Nc3nc(-c4ccc(C)cc4)cs3)C2=O)cc(OC)c1OC [compound 7c, (Z)-2-(5-(3,4,5-Trimethoxybenzylidene)thiazolidin-2,4-dion-3-yl)-N-(4-(4-methylphenyl)thiazol-2-yl)acetamide]	4.8 ± 1	> 100	46.4 ± 1.1	−	+	32.8 ± 0.6	19.5 ± 0.6	−	not able to inhibit the relaxation activity				
COc1cc(/C=C2\SC(=O)N(CC(=O)Nc3nc(-c4ccccc4)cs3)C2=O)cc(OC)c1OC [compound 7b, (Z)-2-(5-(3,4,5-Trimethoxybenzylidene)thiazolidin-2,4-dion-3-yl)-N-(4-phenylthiazol-2-yl)acetamide]	3.5 ± 1.1	> 100	> 100	−	−	17.9 ± 1.1	8.5 ± 1.2	−	not able to inhibit the relaxation activity	unable to inhibit the hTopo II activity			
COc1cc(/C=C2\SC(=O)N(CC(=O)Nc3nccs3)C2=O)cc(OC)c1OC [compound 7a, (Z)-2-(5-(3,4,5-Trimethoxybenzylidene)thiazolidin-2,4-dion-3-yl)-N-(thiazol-2-yl)acetamide]	> 100	89.2 ± 1.1	> 100			27.5 ± 0.9	> 100						245 to 247
